This is an account of results in patent US20260125368A1, “SALT OF GLP-1R AGONIST, PREPARATION METHOD THEREFOR AND USE THEREOF” (MINDRANK AI LTD., priority 2022, published 2026).

This data set can be described thus: Hygroscopic behavior test by dynamic vapor sorption (DVS). Type of data set: physicochemical. To be noted: 25° C.; for Did the crystal form change before and after the test?: 0-90% RH; for Hygroscopicity / 80% RH sample weight change (%): 80% RH; for 80% RH sample weight change (%): adsorption 0-90% RH. From the text: The experimental method for characterizing an acid salt or a base salt of compound I by dynamic vapor sorption (DVS) was as follows: A small amount of a powder of the acid salt or the base salt of compound I was taken and placed into a precise sample tray that matches the instrument. After the sample was loaded, the sample tray was sent into the instrument for analysis. In the present disclosure, the instrument model used in the dynamic vapor sorption analysis was Intrinsic PLUS; the experimental parameter was set as follows: a constant temperature of 25° C. was set; the mass percent change rate per unit time (dm/dt)=0.02%/min was used as a criterion for determining that a balance is achieved; the program humidity change cycle was set as follows: the initial relative humidity was 0%, and the endpoint relative humidity was 90%.
The hygroscopic behavior of a compound affects the production, storage, stability, and quality of the drug.

For the molecule `O=C(O)c1ccc2nc(CN3CCC(Oc4cccc(COc5ccc(Cl)cc5F)n4)CC3)n(C[C@@H]3CCO3)c2c1` [Free form of compound I-1, (S)-2-((4-((6-((4-chloro-2-fluorophenoxy)methyl)pyridin-2-yl)oxy)piperidin-1-yl)methyl)-1-(oxetan-2-ylmethyl)-1H-benzo[d]imidazole-6-carboxylic acid], the “Did the crystal form change before and after the test?” value is “no solid form change was observed and No”; the Hygroscopicity entry is “slightly hygroscopic”; the “80% RH sample weight change (%)” value is given as 0.90%.

On to `N#Cc1ccc(OCc2cccc(OC3CCN(Cc4nc5ccc(C(=O)O)cc5n4C[C@@H]4CCO4)CC3)n2)c(F)c1` [Free form of compound I-2, (S)-2-((4-((6-((4-cyano-2-fluorophenoxy)methyl)pyridin-2-yl)oxy)piperidin-1-yl)methyl)-1-(oxetan-2-ylmethyl)-1H-benzo[d]imidazole-6-carboxylic acid], for which the “Did the crystal form change before and after the test?” value is “no solid form change was observed and No”; the Hygroscopicity entry is “slightly hygroscopic”; the “80% RH sample weight change (%)” value amounted to 0.71%.
